Reference: PubChem BioAssay AID2060618 (Molecular Pharmacology Branch, DTP, NCI, 2025)

Test system: 454973-116-R2-J3-PDC spheroids, percent test/control viability
Experiment: Anticancer human tumor 454973-116-R2-J3-PDC patient-derived pancreatic carcinoma cell line growth inhibition [CLK]
Conditions: spheroids with HUVEC and MSC; for IC50: curve of first compound; for viability, T/C: stronger effect = lower value
Procedure, shortened: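 Multi-cell-type spheroids combined patient-derived tumor cells with HUVEC endothelial cells and human mesenchymal stem cells. Paired agents were dosed in half-log steps down from about clinical Cmax, or from 10 microM where Cmax was unknown.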

[1] = second compound 0.0316 µM, first compound 0.0316 µM
[2] = second compound 0.0316 µM, first compound 0.1 µM
[3] = second compound 0.0316 µM, first compound 0.316 µM
[4] = second compound 0.0316 µM, first compound 1 µM
[5] = second compound 0.0316 µM, first compound 3.16 µM
[6] = second compound 0.0316 µM, first compound 10 µM
[7] = second compound 0.1 µM, first compound 0.0316 µM
[8] = second compound 0.1 µM, first compound 0.1 µM
[9] = second compound 0.1 µM, first compound 0.316 µM
[10] = second compound 0.1 µM, first compound 1 µM
[11] = second compound 0.1 µM, first compound 3.16 µM
[12] = second compound 0.1 µM, first compound 10 µM
[13] = second compound 0.316 µM, first compound 0.0316 µM
[14] = second compound 0.316 µM, first compound 0.1 µM
[15] = second compound 0.316 µM, first compound 0.316 µM
[16] = second compound 0.316 µM, first compound 1 µM
[17] = second compound 0.316 µM, first compound 3.16 µM
[18] = second compound 0.316 µM, first compound 10 µM
[19] = second compound 1 µM, first compound 0.0316 µM
[20] = second compound 1 µM, first compound 0.1 µM
[21] = second compound 1 µM, first compound 0.316 µM
[22] = second compound 1 µM, first compound 1 µM
[23] = second compound 1 µM, first compound 3.16 µM
[24] = second compound 1 µM, first compound 10 µM
[25] = second compound 3.16 µM, first compound 0.0316 µM
[26] = second compound 3.16 µM, first compound 0.1 µM
[27] = second compound 3.16 µM, first compound 0.316 µM
[28] = second compound 3.16 µM, first compound 1 µM
[29] = second compound 3.16 µM, first compound 3.16 µM
[30] = second compound 3.16 µM, first compound 10 µM
[31] = second compound 10 µM, first compound 0.0316 µM
[32] = second compound 10 µM, first compound 0.1 µM
[33] = second compound 10 µM, first compound 0.316 µM
[34] = second compound 10 µM, first compound 1 µM
[35] = second compound 10 µM, first compound 3.16 µM
[36] = second compound 10 µM, first compound 10 µM
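Note: spheroids exposed to compounds for 7 days before readout.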

With `C#Cc1c(F)ccc2cc(O)cc(-c3ncc4c(N5CC6CCC(C5)N6)nc(OCC56CCCN5CC(F)C6)nc4c3F)c12` (stereo unspecified) + CN1CCN(c2cc(C(=O)Nc3cc4cc(-c5cnn(C)c5)ccc4cn3)ccn2)CC1 the IC50 (second compound 0.0316 µM) was 0.0347 µM, the IC50 (second compound 0.1 µM) was less than 0.0316 µM and the IC50 (second compound 0.316 µM) was less than 0.0316 µM. For the same molecule, the IC50 (second compound 1 µM) was less than 0.0316 µM, the IC50 (second compound 3.16 µM) was less than 0.0316 µM and the IC50 (second compound 10 µM) was less than 0.0316 µM. The viability, T/C [1] was 51%, the viability, T/C [2] was 40.5% and the viability, T/C [3] was 29.7%. It also gave a viability, T/C [4] of 30.5%, a viability, T/C [5] of 26.4% and a viability, T/C [6] of 21.7%. For the same molecule, the viability, T/C [7] was 42%, the viability, T/C [8] was 35.6% and the viability, T/C [9] was 29.6%. The viability, T/C [10] was 21.9%, the viability, T/C [11] was 22.5% and the viability, T/C [12] was 16.6%. The viability, T/C [13] was 2.95%, the viability, T/C [14] was 4.54% and the viability, T/C [15] was 2.86%. It also gave a viability, T/C [16] of 2.52%, a viability, T/C [17] of 2.6% and a viability, T/C [18] of 2.24%. It also gave a viability, T/C [19] of 0.11%, a viability, T/C [20] of 0.13% and a viability, T/C [21] of 0.46%. It also gave a viability, T/C [22] of 0.08%, a viability, T/C [23] of 0.12% and a viability, T/C [24] of 0.4%. The viability, T/C [25] was 0.06%, the viability, T/C [26] was 0.9% and the viability, T/C [27] was 0.56%. It also gave a viability, T/C [28] of 0.07%, a viability, T/C [29] of 0.09% and a viability, T/C [30] of 1.64%. For the same molecule, the viability, T/C [31] was 0.11%, the viability, T/C [32] was 0.13% and the viability, T/C [33] was 0.73%. It also gave a viability, T/C [34] of 0.56%, a viability, T/C [35] of 0.92% and a viability, T/C [36] of 0.5%.

With `CC(CO)NC(=O)c1cc(-c2ccc(Cl)cc2)nn(-c2cnn(C)c2)c1=O` (stereo unspecified) + CN1CCN(c2cc(C(=O)Nc3cc4cc(-c5cnn(C)c5)ccc4cn3)ccn2)CC1 the IC50 (second compound 0.0316 µM) was greater than 10 µM, the IC50 (second compound 0.1 µM) was greater than 10 µM and the IC50 (second compound 0.316 µM) was less than 0.0316 µM. It also gave an IC50 (second compound 1 µM) of less than 0.0316 µM, an IC50 (second compound 3.16 µM) of less than 0.0316 µM and an IC50 (second compound 10 µM) of less than 0.0316 µM. It also gave a viability, T/C [1] of 97.5%, a viability, T/C [2] of 97.8% and a viability, T/C [3] of 95.6%. It also gave a viability, T/C [4] of 105%, a viability, T/C [5] of 96.5% and a viability, T/C [6] of 68.4%. It also gave a viability, T/C [7] of 76.9%, a viability, T/C [8] of 88.5% and a viability, T/C [9] of 80.6%. The viability, T/C [10] was 86%, the viability, T/C [11] was 82% and the viability, T/C [12] was 54.2%. The viability, T/C [13] was 1.94%, the viability, T/C [14] was 2.45% and the viability, T/C [15] was 2.27%. For the same molecule, the viability, T/C [16] was 2.92%, the viability, T/C [17] was 2.59% and the viability, T/C [18] was 4.2%. The viability, T/C [19] was 0.11%, the viability, T/C [20] was 0.93% and the viability, T/C [21] was 2.47%. The viability, T/C [22] was 0.11%, the viability, T/C [23] was 0.09% and the viability, T/C [24] was 0.42%. The viability, T/C [25] was 0.17%, the viability, T/C [26] was 0.17% and the viability, T/C [27] was 0.24%. For the same molecule, the viability, T/C [28] was 0.18%, the viability, T/C [29] was 0.16% and the viability, T/C [30] was 0.13%. The viability, T/C [31] was 1.96%, the viability, T/C [32] was 0.22% and the viability, T/C [33] was 0.37%. It also gave a viability, T/C [34] of 2.01%, a viability, T/C [35] of 0.24% and a viability, T/C [36] of 0.36%.

Molecule `COc1c(OCCCN2CCOCC2)ccc2c3n(c(=NC(=O)c4cnc(N)nc4)nc12)CCN3` + CN1CCN(c2cc(C(=O)Nc3cc4cc(-c5cnn(C)c5)ccc4cn3)ccn2)CC1 has an IC50 (second compound 0.0316 µM) of 0.0951 µM, an IC50 (second compound 0.1 µM) of 0.0217 µM and an IC50 (second compound 0.316 µM) of less than 0.00316 µM. It also gave an IC50 (second compound 1 µM) of less than 0.00316 µM, an IC50 (second compound 3.16 µM) of less than 0.00316 µM and an IC50 (second compound 10 µM) of less than 0.00316 µM. It also gave a viability, T/C (second compound 0.0316 µM, first compound 0.00316 µM) of 83.4%, a viability, T/C (second compound 0.0316 µM, first compound 0.01 µM) of 84.3% and a viability, T/C [1] of 77.2%. For the same molecule, the viability, T/C [2] was 46.6%, the viability, T/C [3] was 21.7% and the viability, T/C [4] was 6.87%. It also gave a viability, T/C (second compound 0.1 µM, first compound 0.00316 µM) of 65.2%, a viability, T/C (second compound 0.1 µM, first compound 0.01 µM) of 63.8% and a viability, T/C [7] of 43.4%. For the same molecule, the viability, T/C [8] was 18.1%, the viability, T/C [9] was 9.33% and the viability, T/C [10] was 4.74%. For the same molecule, the viability, T/C (second compound 0.316 µM, first compound 0.00316 µM) was 1.28%, the viability, T/C (second compound 0.316 µM, first compound 0.01 µM) was 0.96% and the viability, T/C [13] was 1.21%. It also gave a viability, T/C [14] of 1.68%, a viability, T/C [15] of 0.41% and a viability, T/C [16] of 0.17%. It also gave a viability, T/C (second compound 1 µM, first compound 0.00316 µM) of 0.15%, a viability, T/C (second compound 1 µM, first compound 0.01 µM) of 0.11% and a viability, T/C [19] of 0.55%. The viability, T/C [20] was 0.06%, the viability, T/C [21] was 1.84% and the viability, T/C [22] was 1.26%. It also gave a viability, T/C (second compound 3.16 µM, first compound 0.00316 µM) of 0.21%, a viability, T/C (second compound 3.16 µM, first compound 0.01 µM) of 0.99% and a viability, T/C [25] of 2.18%. For the same molecule, the viability, T/C [26] was 0.08%, the viability, T/C [27] was 1.65% and the viability, T/C [28] was 0.11%. It also gave a viability, T/C (second compound 10 µM, first compound 0.00316 µM) of 0.1%, a viability, T/C (second compound 10 µM, first compound 0.01 µM) of 1.86% and a viability, T/C [31] of 0.15%. It also gave a viability, T/C [32] of 0.42%, a viability, T/C [33] of 0.43% and a viability, T/C [34] of 0.62%.
